Data published in PubChem BioAssay AID1963870 (Molecular Pharmacology Branch, DTP, NCI, 2024).
pIC50: −log10 of the molar value.

Test system: 292921-168-R-J2-PDC KRAS tumor spheroid viability
Assay: Anticancer human tumor 292921-168-R-J2-PDC patient-derived pancreatic carcinoma cell line growth inhibition [KRAS2]
Details: spheroids with HUVEC and MSC; for pIC50: curve of first compound; for viability, T/C: stronger effect = lower value
Method in brief: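 Combination screen of spheroid viability in tumor-cell co-cultures with endothelial (HUVEC) and mesenchymal stem cell stroma. Each agent was tested in half-log dilutions, topping at clinical Cmax or at 10 microM without a known Cmax.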

[1] = second compound 0.1 µM, first compound 0.01 µM
[2] = second compound 0.1 µM, first compound 0.0316 µM
[3] = second compound 0.1 µM, first compound 0.1 µM
[4] = second compound 0.316 µM, first compound 0.01 µM
[5] = second compound 0.316 µM, first compound 0.0316 µM
[6] = second compound 0.316 µM, first compound 0.1 µM
[7] = second compound 1 µM, first compound 0.01 µM
[8] = second compound 1 µM, first compound 0.0316 µM
[9] = second compound 1 µM, first compound 0.1 µM
[10] = second compound 3.16 µM, first compound 0.01 µM
[11] = second compound 3.16 µM, first compound 0.0316 µM
[12] = second compound 3.16 µM, first compound 0.1 µM
[13] = second compound 0.1 µM, first compound 0.316 µM
[14] = second compound 0.1 µM, first compound 1 µM
[15] = second compound 0.1 µM, first compound 3.16 µM
[16] = second compound 0.316 µM, first compound 0.316 µM
[17] = second compound 0.316 µM, first compound 1 µM
[18] = second compound 0.316 µM, first compound 3.16 µM
[19] = second compound 1 µM, first compound 0.316 µM
[20] = second compound 1 µM, first compound 1 µM
[21] = second compound 1 µM, first compound 3.16 µM
[22] = second compound 3.16 µM, first compound 0.316 µM
[23] = second compound 3.16 µM, first compound 1 µM
[24] = second compound 3.16 µM, first compound 3.16 µM
[25] = second compound 10 µM, first compound 0.01 µM
[26] = second compound 10 µM, first compound 0.0316 µM
[27] = second compound 10 µM, first compound 0.1 µM
[28] = second compound 10 µM, first compound 0.316 µM
[29] = second compound 10 µM, first compound 1 µM
[30] = second compound 10 µM, first compound 3.16 µM
[31] = second compound 0.1 µM, first compound 10 µM
[32] = second compound 0.316 µM, first compound 10 µM
[33] = second compound 1 µM, first compound 10 µM
[34] = second compound 3.16 µM, first compound 10 µM
[35] = second compound 10 µM, first compound 10 µM
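Further: drug exposure lasted seven days after spheroids formed for three days.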
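Wherever viability, T/C is given: percent of DMSO vehicle control viability which is 100%.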

With CC(C)n1nc(-c2ccc3oc(N)nc3c2)c2c(N)ncnc21 + C=CC(=O)N1CCN(c2nc(OCC3CCCN3C)nc3c2CCN(c2cccc4cccc(C)c24)C3)CC1CC#N the pIC50 (second compound 0.0316 µM) was 8.60, the pIC50 (second compound 0.1 µM) was 8.55 and the pIC50 (second compound 0.316 µM) was 8.97. The pIC50 (second compound 1 µM) was greater than 9.50, the pIC50 (second compound 3.16 µM) was greater than 9.50 and the viability, T/C (second compound 0.0316 µM, first compound 0.000316 µM) was 78.8%. For the same compound, the viability, T/C (second compound 0.0316 µM, first compound 0.001 µM) was 62.7%, the viability, T/C (second compound 0.0316 µM, first compound 0.00316 µM) was 48.3% and the viability, T/C (second compound 0.0316 µM, first compound 0.01 µM) was 30.8%. The viability, T/C (second compound 0.0316 µM, first compound 0.0316 µM) was 25.3%, the viability, T/C (second compound 0.0316 µM, first compound 0.1 µM) was 21.1% and the viability, T/C (second compound 0.1 µM, first compound 0.000316 µM) was 83.3%. For the same compound, the viability, T/C (second compound 0.1 µM, first compound 0.001 µM) was 70.8%, the viability, T/C (second compound 0.1 µM, first compound 0.00316 µM) was 47.3% and the viability, T/C [1] was 31%. It also gave a viability, T/C [2] of 21.4%, a viability, T/C [3] of 20.9% and a viability, T/C (second compound 0.316 µM, first compound 0.000316 µM) of 70.2%. It also gave a viability, T/C (second compound 0.316 µM, first compound 0.001 µM) of 50.5%, a viability, T/C (second compound 0.316 µM, first compound 0.00316 µM) of 36.9% and a viability, T/C [4] of 28.6%. For the same compound, the viability, T/C [5] was 21.6%, the viability, T/C [6] was 18.5% and the viability, T/C (second compound 1 µM, first compound 0.000316 µM) was 30.9%. The viability, T/C (second compound 1 µM, first compound 0.001 µM) was 25.5%, the viability, T/C (second compound 1 µM, first compound 0.00316 µM) was 23.8% and the viability, T/C [7] was 17.8%. For the same compound, the viability, T/C [8] was 15.7%, the viability, T/C [9] was 13.8% and the viability, T/C (second compound 3.16 µM, first compound 0.000316 µM) was 1.12%. It also gave a viability, T/C (second compound 3.16 µM, first compound 0.001 µM) of 0.57%, a viability, T/C (second compound 3.16 µM, first compound 0.00316 µM) of 0.82% and a viability, T/C [10] of 0.33%. It also gave a viability, T/C [11] of 0.47% and a viability, T/C [12] of 0.73%.

In the case of CC(=O)OC12COC1CC(O)C1(C)C(=O)C(O)C3=C(C)C(OC(=O)C(O)C(NC(=O)OC(C)(C)C)c4ccccc4)CC(O)(C(OC(=O)c4ccccc4)C21)C3(C)C (stereo not given) + CNCc1ccccc1-c1csc(C(C)Nc2nc(C)nc3cc(OC)c(OC)cc23)c1, the pIC50 (second compound 0.1 µM) was greater than 8.00, the pIC50 (second compound 0.316 µM) was greater than 8.00 and the pIC50 (second compound 1 µM) was greater than 8.00. The pIC50 (second compound 3.16 µM) was greater than 8.00, the pIC50 (second compound 10 µM) was greater than 8.00 and the viability, T/C [1] was 13.9%. For the same compound, the viability, T/C [2] was 15.9%, the viability, T/C [3] was 13.8% and the viability, T/C [13] was 14.6%. For the same compound, the viability, T/C [14] was 17.2%, the viability, T/C [15] was 18.1% and the viability, T/C [4] was 15.8%. For the same compound, the viability, T/C [5] was 14.4%, the viability, T/C [6] was 13% and the viability, T/C [16] was 13%. The viability, T/C [17] was 15.7%, the viability, T/C [18] was 17.5% and the viability, T/C [7] was 16.5%. It also gave a viability, T/C [8] of 15%, a viability, T/C [9] of 11.5% and a viability, T/C [19] of 12.3%. It also gave a viability, T/C [20] of 17.4%, a viability, T/C [21] of 22.8% and a viability, T/C [10] of 0.1%. For the same compound, the viability, T/C [11] was 16.1%, the viability, T/C [12] was 0.07% and the viability, T/C [22] was 0.03%. The viability, T/C [23] was 0.08%, the viability, T/C [24] was 19.4% and the viability, T/C [25] was 0.14%. The viability, T/C [26] was 0.09%, the viability, T/C [27] was 0.06% and the viability, T/C [28] was 0.04%. The viability, T/C [29] was 0.08% and the viability, T/C [30] was 0.17%.

For O=C(c1cc(Cc2n[nH]c(=O)c3ccccc23)ccc1F)N1CCN(C(=O)C2CC2)CC1 + CNCc1ccccc1-c1csc(C(C)Nc2nc(C)nc3cc(OC)c(OC)cc23)c1, the pIC50 (second compound 0.1 µM) was 5.21, the pIC50 (second compound 0.316 µM) was 5.26 and the pIC50 (second compound 1 µM) was 5.31. The pIC50 (second compound 3.16 µM) was greater than 7.50, the pIC50 (second compound 10 µM) was greater than 7.50 and the viability, T/C [2] was 98%. The viability, T/C [3] was 109%, the viability, T/C [13] was 99.2% and the viability, T/C [14] was 87.6%. The viability, T/C [15] was 61.2%, the viability, T/C [31] was 41.6% and the viability, T/C [5] was 88.7%. The viability, T/C [6] was 79%, the viability, T/C [16] was 76.8% and the viability, T/C [17] was 74%. The viability, T/C [18] was 62.3%, the viability, T/C [32] was 37.6% and the viability, T/C [8] was 83.5%. For the same compound, the viability, T/C [9] was 68.3%, the viability, T/C [19] was 69.9% and the viability, T/C [20] was 70.1%. It also gave a viability, T/C [21] of 52.3%, a viability, T/C [33] of 42.4% and a viability, T/C [11] of 0.14%. It also gave a viability, T/C [12] of 0.13%, a viability, T/C [22] of 0.11% and a viability, T/C [23] of 0.1%. It also gave a viability, T/C [24] of 0.1%, a viability, T/C [34] of 0.17% and a viability, T/C [26] of 0.33%. It also gave a viability, T/C [27] of 0.1%, a viability, T/C [28] of 0.1% and a viability, T/C [29] of 0.11%. The viability, T/C [30] was 0.11% and the viability, T/C [35] was 0.19%.

With CC1COCCN1c1cc(-c2ccnn2C)c2ccnc(-c3ccn[nH]3)c2n1 (stereo not given) + CNCc1ccccc1-c1csc(C(C)Nc2nc(C)nc3cc(OC)c(OC)cc23)c1 the pIC50 (second compound 0.1 µM) was greater than 8.00, the pIC50 (second compound 0.316 µM) was greater than 8.00 and the pIC50 (second compound 1 µM) was greater than 8.00. It also gave a pIC50 (second compound 3.16 µM) greater than 8.00, a pIC50 (second compound 10 µM) greater than 8.00 and a viability, T/C [1] of 39.3%. For the same compound, the viability, T/C [2] was 21%, the viability, T/C [3] was 15.5% and the viability, T/C [13] was 13.1%. For the same compound, the viability, T/C [14] was 15.2%, the viability, T/C [15] was 16.1% and the viability, T/C [4] was 34.4%. For the same compound, the viability, T/C [5] was 19.7%, the viability, T/C [6] was 12.7% and the viability, T/C [16] was 12.9%. The viability, T/C [17] was 14.1%, the viability, T/C [18] was 14.8% and the viability, T/C [7] was 28.9%. The viability, T/C [8] was 16.3%, the viability, T/C [9] was 11.1% and the viability, T/C [19] was 11.3%. For the same compound, the viability, T/C [20] was 13.5%, the viability, T/C [21] was 12.8% and the viability, T/C [10] was 0.07%. The viability, T/C [11] was 0.07%, the viability, T/C [12] was 0.05% and the viability, T/C [22] was 0.08%. For the same compound, the viability, T/C [23] was 0.1%, the viability, T/C [24] was 0.16% and the viability, T/C [25] was 0.11%. It also gave a viability, T/C [26] of 0.09%, a viability, T/C [27] of 0.27% and a viability, T/C [28] of 0.08%. For the same compound, the viability, T/C [29] was 0.09% and the viability, T/C [30] was 0.15%.

With CC1(C)CCC(CN2CCN(c3ccc(C(=O)NS(=O)(=O)c4ccc(NCC5CCOCC5)c([N+](=O)[O-])c4)c(Oc4cnc5[nH]ccc5c4)c3)CC2)=C(c2ccc(Cl)cc2)C1 + CNCc1ccccc1-c1csc(C(C)Nc2nc(C)nc3cc(OC)c(OC)cc23)c1 the pIC50 (second compound 0.1 µM) was 5.71, the pIC50 (second compound 0.316 µM) was 5.67 and the pIC50 (second compound 1 µM) was 5.86. The pIC50 (second compound 3.16 µM) was greater than 7.50, the pIC50 (second compound 10 µM) was greater than 7.50 and the viability, T/C [2] was 94.3%. It also gave a viability, T/C [3] of 93.4%, a viability, T/C [13] of 102% and a viability, T/C [14] of 88.4%. The viability, T/C [15] was 22%, the viability, T/C [31] was 8.05% and the viability, T/C [5] was 87.7%. It also gave a viability, T/C [6] of 86.9%, a viability, T/C [16] of 94.4% and a viability, T/C [17] of 86.6%. For the same compound, the viability, T/C [18] was 30.8%, the viability, T/C [32] was 6.47% and the viability, T/C [8] was 60.5%. The viability, T/C [9] was 62.5%, the viability, T/C [19] was 68.2% and the viability, T/C [20] was 66.6%. For the same compound, the viability, T/C [21] was 13%, the viability, T/C [33] was 5.94% and the viability, T/C [11] was 0.12%. For the same compound, the viability, T/C [12] was 1.9%, the viability, T/C [22] was 0.25% and the viability, T/C [23] was 0.79%. The viability, T/C [24] was 0.4%, the viability, T/C [34] was 0.64% and the viability, T/C [26] was 0.08%. It also gave a viability, T/C [27] of 0.08%, a viability, T/C [28] of 0.23% and a viability, T/C [29] of 0.08%. The viability, T/C [30] was 0.09% and the viability, T/C [35] was 0.28%.
